In US11912650B2, “Bakuchiol derivatives, pharmaceutically acceptable salts thereof, and preparation method and use of the same” (priority 2020, dated 2024):
In brackets after ≈: the same amount, converted by molar mass. Read-outs that look alike come from different tables or passages of the source.

Columns and labels:
Gram-positive bacteria = assay: Antibacterial activity against Gram-positive bacteria (MIC summary); type: cell-based; conditions: 24 h, read-out: minimum inhibitory concentration (MIC) against Gram-positive bacteria
Description: (§1) Antibacterial activity assay. The antibacterial activities of all the compounds were determined according to a broth dilution method specified in Clinical and Laboratory Standards Institute (CLSI) guidelines. Bacterial cells were inoculated on a Mueller-Hinton agar (MHA) plate for overnight culture, and the concentration of the bacterial cells was adjusted to about 1×10^6 colony-forming units (CFU)/mL with phosphate buffered saline (PBS). First, a 1000 μg/mL stock solution (a final concentration of dimethyl sulfoxide (DMSO) was ≤2%) was prepared by dissolving a sample in DMSO/H2O. Then, the stock solution was diluted with Mueller-Hinton Broth (MHB) to an initial concentration of 100 μg/mL, and the sample solution (100 μL) was subjected to two-fold gradient dilution with MHB in a 96-well plate, to obtain 100 μg/mL to 0.78 μg/mL serial dilutions. Then, a bacterial suspension (100 μL) was added to each well of the 96-well plate and mixed with the test sample solution (100 μL). Among them, test systems for compounds 38, 44-45, 58-61 and 63-64 contained 0.05% of Tween 80. Finally, the 96-well plate was incubated at 37° C. for 24 hours. Absorbances at 600 nm at 0 and 24 h were measured. An minimum inhibitory concentration (MIC) value was defined as the lowest concentration where no visible bacterial growth occurred. All experiments were carried out in at least two duplicates, and biological repeatability could be achieved.

MRSA NCTC10442 = assay: Antibacterial activity assay (broth dilution MIC); type: cell-based, methicillin-resistant Staphylococcus aureus; conditions: Staphylococcus aureus, 37° C., 24 h, compounds 38, 44-45, 58-61, 63-64 with 0.05% Tween 80
Description: as §1

MRSA N315 = assay: Antibacterial activity assay (broth dilution MIC); type: cell-based, methicillin-resistant Staphylococcus aureus; conditions: Staphylococcus aureus, 37° C., 24 h, compounds 38, 44-45, 58-61, 63-64 with 0.05% Tween 80
Description: as §1

E. coli ATCC25922 = assay: Antibacterial activity assay (broth dilution MIC); type: cell-based; conditions: Escherichia coli, 37° C., 24 h, compounds 38, 44-45, 58-61, 63-64 with 0.05% Tween 80
Description: as §1

S. aureus ATCC29213 = assay: Antibacterial activity assay (broth dilution MIC); type: cell-based; conditions: Staphylococcus aureus, 37° C., 24 h, compounds 38, 44-45, 58-61, 63-64 with 0.05% Tween 80
Description: as §1

| SMILES | MIC (Gram-positive bacteria) [µg/mL] | MIC (MRSA NCTC10442) [µg/mL] | MIC (MRSA N315) [µg/mL] | MIC (E. coli ATCC25922) [µg/mL] | MIC (S. aureus ATCC29213) [µg/mL] | MIC (Gram-positive bacteria; summary of tables 1 and 2) [µg/mL] |
| --- | --- | --- | --- | --- | --- | --- |
| C=C[C@](C)(/C=C/c1ccc(OCC(=O)N[C@H](CCCNC(=N)N)C(N)=O)cc1)CCC=C(C)C [Compound 39] | 0.39 to 3.12 (≈ 0.83 to 6.65 µM) | 3.12 (≈ 6.65 µM) | 3.12 (≈ 6.65 µM) | 12.5 (≈ 26.6 µM) | 3.12 (≈ 6.65 µM) | – |
| C=C[C@@](C)(/C=C/c1ccc(OCCCCNCCCCCCCC)cc1)CCC=C(C)C [Compound 17] | – | 3.12 (≈ 7.11 µM) | 1.56 (≈ 3.55 µM) | > 100 | 6.25 (≈ 14.2 µM) | – |
| C=C[C@@](C)(/C=C/c1ccc(OCCCCNCCSC)cc1)CCC=C(C)C [Compound 25] | – | 1.56 (≈ 3.88 µM) | 0.78 (≈ 1.94 µM) | 50 (≈ 124 µM) | 0.78 (≈ 1.94 µM) | 0.39 to 3.12 (≈ 0.971 to 7.78 µM) |
| C=C[C@](C)(/C=C/c1ccc(OCC(=O)N[C@@H](CCCNC(=N)N)C(=O)NCCCN(CC)CC)cc1)CCC=C(C)C [Compound 52] | – | 0.78 (≈ 1.34 µM) | 0.78 (≈ 1.34 µM) | 25 (≈ 42.9 µM) | 1.56 (≈ 2.68 µM) | 0.39 to 3.12 (≈ 0.669 to 5.36 µM) |
| C=C[C@](C)(/C=C/c1ccc(OCC(=O)N[C@H](CCCNC(=N)N)C(=O)N2CCN(c3ccc(N4CC(CNC(C)=O)OC4=O)cc3F)CC2)cc1)CCC=C(C)C (some centres unmarked) [Compound 53] | – | 0.78 (≈ 0.989 µM) | 0.78 (≈ 0.989 µM) | 6.25 (≈ 7.92 µM) | 0.78 (≈ 0.989 µM) | 0.39 to 3.12 (≈ 0.494 to 3.96 µM) |
| C=C[C@@](C)(/C=C/c1ccc(OCCCN(CC)CC)cc1)CCC=C(C)C [Compound 9] | 0.39 to 3.12 (≈ 1.06 to 8.46 µM) | 3.12 (≈ 8.46 µM) | 3.12 (≈ 8.46 µM) | > 100 | 3.12 (≈ 8.46 µM) | – |
| C=C[C@@](C)(/C=C\c1ccc(OCC(=O)N[C@@H](CCCNC(=N)N)C(=O)N[C@@H](Cc2c[nH]cn2)C(=O)OC)cc1)CCC=C(C)C [Compound 50] | – | 6.25 (≈ 10.1 µM) | 6.25 (≈ 10.1 µM) | 12.5 (≈ 20.1 µM) | 6.25 (≈ 10.1 µM) | – |
| C=C[C@@](C)(/C=C/c1ccc(OCCCCNCCCCCCCCCC)cc1)CCC=C(C)C [Compound 18] | – | 50 (≈ 107 µM) | 12.5 (≈ 26.7 µM) | > 100 | 50 (≈ 107 µM) | – |
| C=C[C@](C)(/C=C/c1ccc(OCC(=O)N[C@@H](CCCNC(=N)N)C(=O)N[C@@H](CCCNC(=N)N)C(N)=O)cc1)CCC=C(C)C [Compound 49] | 0.39 to 3.12 (≈ 0.623 to 4.99 µM) | 1.56 (≈ 2.49 µM) | 3.12 (≈ 4.99 µM) | 12.5 (≈ 20 µM) | 1.56 (≈ 2.49 µM) | – |
| C=C[C@](C)(/C=C/c1ccc(OCC(=O)N[C@@H](CCCNC(=N)N)C(=O)OC)cc1)CCC=C(C)C [Compound 38] | 0.39 to 3.12 (≈ 0.805 to 6.45 µM) | 0.78 (≈ 1.61 µM) | 1.56 (≈ 3.22 µM) | 6.25 (≈ 12.9 µM) | 0.78 (≈ 1.61 µM) | – |
| C=C[C@@](C)(/C=C/c1ccc(OCCCCNCCCCCC)cc1)CCC=C(C)C [Compound 16] | – | 1.56 (≈ 3.79 µM) | 0.78 (≈ 1.89 µM) | 100 (≈ 243 µM) | 1.56 (≈ 3.79 µM) | 0.39 to 3.12 (≈ 0.947 to 7.59 µM) |
| C=C[C@](C)(/C=C/c1ccc(OCC(=O)N[C@@H](Cc2c[nH]cn2)C(=O)N[C@@H](Cc2c[nH]cn2)C(=O)OC)cc1)CCC=C(C)C [Compound 55] | – | 12.5 (≈ 20.7 µM) | 12.5 (≈ 20.7 µM) | > 100 | 12.5 (≈ 20.7 µM) | – |
| C=C[C@@](C)(/C=C/c1ccc(OCCCCN(Cc2ccccn2)Cc2ccccn2)cc1)CCC=C(C)C [Compound 22] | – | 1.56 (≈ 3.06 µM) | 1.56 (≈ 3.06 µM) | > 100 | 3.12 (≈ 6.13 µM) | – |
| C=C[C@@](C)(/C=C/c1ccc(OCCCCN2CCCC2)cc1)CCC=C(C)C [Compound 20] | – | 1.56 (≈ 4.09 µM) | 1.56 (≈ 4.09 µM) | > 100 | 1.56 (≈ 4.09 µM) | – |
| C=C[C@@](C)(/C=C/c1ccc(OCC(=O)N[C@@H](CCCCN)C(=O)OC)cc1)CCC=C(C)C [Compound 47] | – | 6.25 (≈ 13.7 µM) | 6.25 (≈ 13.7 µM) | 12.5 (≈ 27.4 µM) | 6.25 (≈ 13.7 µM) | – |
| C=C[C@@](C)(/C=C/c1ccc(OCCCCN2CCN(C)CC2)cc1)CCC=C(C)C [Compound 21] | – | 3.12 (≈ 7.61 µM) | 3.12 (≈ 7.61 µM) | > 100 | 1.56 (≈ 3.8 µM) | – |
| C=C[C@@](C)(/C=C/c1ccc(OCCCN(C)C)cc1)CCC=C(C)C [Compound 8] | – | 6.25 (≈ 18.3 µM) | 6.25 (≈ 18.3 µM) | > 100 | 6.25 (≈ 18.3 µM) | – |
| C=C[C@](C)(/C=C/c1ccc(OCC(=O)N[C@@H](Cc2c[nH]cn2)C(=O)OC)cc1)CCC=C(C)C [Compound 40] | – | 6.25 (≈ 13.4 µM) | 6.25 (≈ 13.4 µM) | > 100 | 6.25 (≈ 13.4 µM) | – |
